Laboratory results: US9630947B2, “Therapeutic compounds and related methods of use” (OTSUKA PHARMACEUTICAL CO., LTD., priority 2009, dated 2017)

Each compound was assayed against T1, purified STEP46 enzyme (Homo sapiens, UniProt P54829) (assay: STEP46 biochemical assay (DiFMUP fluorescence phosphatase assay)). Details: DiFMUP 10 μM, read-out: STEP IC50.
T1 sequence (P54829 1-565): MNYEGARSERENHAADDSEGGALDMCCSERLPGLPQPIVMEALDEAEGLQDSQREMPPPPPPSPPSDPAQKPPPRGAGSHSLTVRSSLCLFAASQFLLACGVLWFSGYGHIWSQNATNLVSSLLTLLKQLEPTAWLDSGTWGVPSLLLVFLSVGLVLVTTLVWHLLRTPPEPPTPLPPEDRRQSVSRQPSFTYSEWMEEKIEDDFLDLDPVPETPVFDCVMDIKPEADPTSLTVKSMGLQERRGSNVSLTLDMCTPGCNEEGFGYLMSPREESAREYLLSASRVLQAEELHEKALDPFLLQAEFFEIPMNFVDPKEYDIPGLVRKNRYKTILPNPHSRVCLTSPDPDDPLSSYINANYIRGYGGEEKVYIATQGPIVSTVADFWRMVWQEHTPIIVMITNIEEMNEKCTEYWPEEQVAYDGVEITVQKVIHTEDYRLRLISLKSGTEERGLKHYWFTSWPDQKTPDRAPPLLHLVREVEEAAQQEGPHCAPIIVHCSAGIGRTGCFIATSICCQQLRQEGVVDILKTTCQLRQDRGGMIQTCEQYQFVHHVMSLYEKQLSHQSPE
Outline: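 Compounds preincubated 30 min at room temperature with purified STEP46 (1 ng/well) in 50 mM Hepes, 1 mM DTT, 0.02% Brij35, then 10 μM DiFMUP (final) added for 90 min at 27 °C; 2% DMSO, fluorescence at 360/460 nm. IC50 from four-parameter fit of % inhibition; activators reported as negative % inhibition at 25, 50 and 100 uM.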

Row | SMILES | IC50 [µM]
1 | COc1ccc2nc(-c3cccnc3)nc(Nc3ccc4nonc4c3)c2c1 [Compound 332] | < 1
2 | CNc1nc(-c2ccncc2)nc2ccc(-c3ccc(F)cc3F)cc12 [Compound 1467] | 1 to 10
3 | Fc1ccc(Nc2nc(-c3cccnc3)nc3ccc(-c4ccc(Cl)cc4)cc23)cc1Cl [Compound 630] | 1 to 10
4 | COc1ccc2nc(-c3cccnc3)nc(Nc3nc(-c4ccc(F)c(F)c4)cs3)c2c1 [Compound 445] | < 1
5 | CNc1nc(-c2cccnc2)nc2cc(-c3ccc(C(C)=O)cc3)ccc12 [Compound 1351] | 1 to 10
6 | CNc1nc(-c2cccnc2)nc2c(C)cc(-c3ccccc3OC)cc12 [Compound 1283] | > 10
7 | COc1ccc2nc(-c3cccnc3)nc(Nc3nc(-c4c(F)cccc4F)cs3)c2c1 [Compound 459] | < 1
8 | Fc1ccc(-c2ccc3c(Nc4ccc(F)c(Cl)c4)nc(-c4cccnc4)nc3c2)cc1F [Compound 674] | 1 to 10
9 | N#Cc1cccc(-c2ccc3nc(-c4cccnc4)nc(Nc4ccc(F)c(Cl)c4)c3c2)c1 [Compound 633] | 1 to 10
10 | COc1ccc2nc(-c3cccnc3)nc(Nc3nc(-c4cccc(C#N)c4)cs3)c2c1 [Compound 453] | < 1
11 | COc1ccc2nc(-c3cccnc3)nc(Oc3ccc(Cl)c(Cl)c3)c2c1 [Compound 344] | 1 to 10
12 | N#Cc1cccc(Nc2nc(-c3cnccn3)nc3ccc(Cl)cc23)c1 [Compound 1158] | 1 to 10
13 | CNc1nc(-c2cccnc2)nc2cc(C)c(-c3cccc(OC)c3)cc12 [Compound 1419] | 1 to 10
14 | COc1ccc2nc(-c3cccnc3)nc(Nc3ncc(-c4ccccc4)s3)c2c1 [Compound 418] | 1 to 10
15 | Fc1ccc(-c2ccc3nc(-c4cccnc4)nc(Nc4ccc(F)c(Cl)c4)c3c2)c(F)c1 [Compound 671] | 1 to 10
16 | COc1ccc(Cl)c(Nc2nc(-c3cccnc3)nc3ccc(OC)cc23)c1 [Compound 932] | 1 to 10
17 | CNC(=O)c1sc(Nc2nc(-c3cccnc3)nc3ccc(OC)cc23)nc1-c1ccccc1 [Compound 1124, 2-(6-methoxy-2-(pyridin-3-yl)quinazolin-4-ylamino)-N-methyl-4-phenylthiazole-5-carboxamide] | < 1
18 | CNc1nc(-c2cccnc2)nc2c(C)cc(-c3cccc(F)c3)cc12 [Compound 1280] | 1 to 10
19 | COc1ccc2nc(-c3cccnc3)nc(Nc3cccc(-c4ccccc4)c3)c2c1 [Compound 426] | > 10

Row | SMILES | IC50 [µM]
20 | CN(C)C(=O)COc1ccc2nc(-c3cccnc3)nc(Oc3ccc(Cl)c(Cl)c3)c2c1 [Compound 847] | < 1
21 | Fc1ccc(F)c(-c2ccc3c(Nc4ccc(F)c(Cl)c4)nc(-c4cccnc4)nc3c2)c1 [Compound 676] | < 1
22 | COc1ccc2nc(-c3cccnc3)nc(Nc3ccc4ncsc4c3)c2c1 [Compound 296] | 1 to 10
23 | COc1ncc(-c2ccc3c(Nc4ccc(F)c(Cl)c4)nc(-c4cccnc4)nc3c2)cn1 [Compound 679] | < 1
24 | Fc1cccc(-c2ccc3c(Nc4ccc(F)c(Cl)c4)nc(-c4cccnc4)nc3c2)c1 [Compound 688] | < 1
25 | Nc1nc(-c2cccnc2)nc2ccc(-c3ccccc3Cl)cc12 [Compound 1328] | > 10
26 | COc1ccc2nc(-c3cccnc3)nc(Nc3ccccc3C(=O)NCc3cccs3)c2c1 [Compound 884] | > 10
27 | Nc1nc(-c2cccnc2)nc2cc(-c3cc(F)ccc3F)ccc12 [Compound 1395] | 1 to 10
28 | CNc1nc(-c2cccnc2)nc2cc(-c3ccc(F)cc3)ccc12 [Compound 1360] | 1 to 10
29 | CNc1nc(-c2cccnc2)nc2cc(-c3cccc(C#N)c3)ccc12 [Compound 1364] | 1 to 10
30 | COc1ccc2nc(-c3cccnc3)nc(Nc3nc(-c4cccc(F)c4)cs3)c2c1 [Compound 441] | 1 to 10
31 | COc1ccc2nc(-c3cccnc3)nc(Nc3ccc(Br)cc3)c2c1 [Compound 421] | > 10
32 | COc1ccc2nc(-c3cccnc3)nc(Nc3nc(-c4ccccc4F)cs3)c2c1 [Compound 439] | < 1
33 | CCOc1ccc(-c2ccc3nc(-c4cccnc4)nc(Nc4ccc(F)c(Cl)c4)c3c2)cn1 [Compound 661] | < 1
34 | Clc1ccc(Nc2nc(-c3ccnnc3)nc3ccccc23)cc1Cl [Compound 1215] | < 1
35 | NC(=O)c1ccccc1Nc1nc(-c2cccnc2)nc2cc(-c3cc(F)ccc3F)ccc12 [Compound 706] | < 1
36 | CCOc1ccc2nc(-c3cccnc3)nc(Nc3nc(-c4cc(F)ccc4F)cs3)c2c1 [Compound 471] | 1 to 10
37 | CCOc1ccc2nc(-c3cccnc3)nc(Nc3nc(-c4ccccc4)cs3)c2c1 [Compound 473] | 1 to 10

More lines, now with the values ahead:

Row | IC50 [µM] | SMILES
38 | < 1 | COc1ccc2nc(-c3cccnc3)nc(Nc3nc(-c4ccccc4)c(C)s3)c2c1 [Compound 456]
39 | 1 to 10 | COc1ccc2nc(-c3cccnc3)nc(Nc3ccc4ncoc4c3)c2c1 [Compound 341]
40 | 1 to 10 | CNc1nc(-c2cccnc2)nc2cc(-c3cc(F)cc(F)c3)c(C)cc12 [Compound 1408]
41 | 1 to 10 | CNc1nc(-c2cccnc2)nc2cc(C)c(-c3ccc(F)c(F)c3)cc12 [Compound 1416]
42 | < 1 | CCOc1ccc2nc(-c3cccnc3)nc(Nc3nc(-c4ccc(F)c(F)c4)cs3)c2c1 [Compound 468]
43 | 1 to 10 | N#Cc1cccc(Nc2nc(-c3ccnnc3)nc3cc(Cl)ccc23)c1 [Compound 1203]
44 | > 10 | COc1ccc2nc(-c3cccnc3)nc(Nc3ccccc3C(=O)NC(C)c3cccc(C(F)(F)F)c3)c2c1 (centres unmarked) [Compound 888]
45 | 1 to 10 | CN(C)C(=O)COc1ccc2nc(-c3cccnc3)nc(Oc3ccc(F)c(Cl)c3)c2c1 [Compound 846]
46 | > 10 | CN(C)c1nc(-c2cccnc2)nc2ccc(-c3cccc(Cl)c3)cc12 [Compound 1333]
47 | 1 to 10 | Fc1ccc(Nc2nc(-c3ccnnc3)nc3cc(Cl)ccc23)cc1F [Compound 1202]
48 | < 1 | COc1ccc2nc(-c3cccnc3)nc(Nc3nc(-c4ccc(C(F)(F)F)cc4)cs3)c2c1 [Compound 443]
49 | < 1 | Cc1cccc(-c2ccc3nc(-c4cccnc4)nc(Nc4ccc(F)c(Cl)c4)c3c2)c1 [Compound 632]
50 | 1 to 10 | N#Cc1cccc(Nc2nc(-c3cnccn3)nc3cc(Cl)ccc23)c1 [Compound 1144]
51 | 1 to 10 | Fc1ccc(Nc2nc(-c3cnccn3)nc3cc(Cl)ccc23)cc1F [Compound 1142]
52 | > 10 | CNc1nc(-c2cccnc2)nc2c(C)c(-c3ccccc3)ccc12 [Compound 1454]
53 | > 10 | CNc1nc(-c2cccnc2)nc2cc(-c3ccc(F)cc3)c(C)cc12 [Compound 1404]
54 | 1 to 10 | Clc1cc(Cl)cc(Nc2nc(-c3ccnnc3)nc3cc(Cl)ccc23)c1 [Compound 1205]
55 | 1 to 10 | O=C(c1ccc(-c2ccc3nc(-c4cccnc4)nc(Nc4ccc(F)c(Cl)c4)c3c2)cc1)N1CCCCC1 [Compound 665]
56 | 1 to 10 | COc1ccc2nc(-c3cccnc3)nc(Nc3nc(CC(C)C)cs3)c2c1 [Compound 460]

Row | IC50 [µM] | SMILES
57 | 1 to 10 | FC(F)Oc1cccc(Nc2nc(-c3ccnnc3)nc3cc(Cl)ccc23)c1 [Compound 1200]
58 | < 1 | CCOc1cccc(-c2ccc3nc(-c4cccnc4)nc(Nc4ccc(F)c(Cl)c4)c3c2)c1 [Compound 657]
59 | 1 to 10 | COc1ccccc1-c1ccc2c(Nc3ccc(F)c(Cl)c3)nc(-c3cccnc3)nc2c1 [Compound 682]
60 | 1 to 10 | COc1ccc2nc(-c3cccnc3)nc(Nc3nc(-c4cccc(C)c4)cs3)c2c1 [Compound 440]
61 | 1 to 10 | COc1ccc2nc(-c3cccnc3)nc(Nc3cccc4c3OC(F)(F)O4)c2c1 [Compound 339]
62 | < 1 | COc1ccc2nc(-c3cnccn3)nc(Nc3cc(Cl)cc(Cl)c3)c2c1 [Compound 1194]
63 | 1 to 10 | COc1ccc2nc(-c3cccnc3)nc(Nc3nc(-c4ccccc4OC(F)(F)F)cs3)c2c1 [Compound 454]
64 | < 1 | NC(=O)c1ccccc1Nc1nc(-c2cccnc2)nc2cc(-c3ccccc3F)ccc12 [Compound 702]
65 | > 10 | FC(F)Oc1cccc(Nc2nc(-c3cncnc3)nc3ccccc23)c1 [Compound 1211]
66 | 1 to 10 | CNc1nc(-c2cccnc2)nc2cc(-c3cccc(C#N)c3)c(C)cc12 [Compound 1409]
67 | 1 to 10 | COc1ccc2nc(-c3cccnc3)nc(Nc3ccc(-c4ccc(Cl)cc4)cc3)c2c1 [Compound 424]
68 | 1 to 10 | Clc1ccc(Nc2nc(-c3cnccn3)nc3ccccc23)cc1Cl [Compound 1218]
69 | 1 to 10 | COc1ccc2nc(-c3cccnc3)nc(Nc3ccc4sc(=O)n(C)c4c3)c2c1 [Compound 327]
70 | 1 to 10 | Fc1ccc(Nc2nc(-c3cccnc3)nc3cc(-c4cncnc4)ccc23)cc1Cl [Compound 678]
71 | > 10 | CNc1c(-c2cccc(C#N)c2)ccc2nc(-c3cccnc3)nc(C)c12 [Compound 1423]
72 | 1 to 10 | Fc1ccc(Nc2nc(-c3cnccn3)nc3ccccc23)cc1Cl [Compound 1219]
73 | < 1 | COc1ncccc1-c1ccc2nc(-c3cccnc3)nc(Nc3ccc(F)c(Cl)c3)c2c1 [Compound 650]
74 | > 10 | Fc1ccc(Nc2nc(-c3cnccn3)nc3ccccc23)cc1F [Compound 1220]
